Measured values from patent US20100261618A1, “Identification of genes implicated in the virulence of streptococcus agalactiae” (priority 2006, published 2010).
Read-outs that look alike come from different tables or passages of the source.

Tests used:
GBS 0582 = biological target: T1, GBS 0582 (Streptococcus agalactiae, UniProt Q8E126); assay: biochemical; design: species or system S. agalactiae
T1 sequence (Q8E126 1-311): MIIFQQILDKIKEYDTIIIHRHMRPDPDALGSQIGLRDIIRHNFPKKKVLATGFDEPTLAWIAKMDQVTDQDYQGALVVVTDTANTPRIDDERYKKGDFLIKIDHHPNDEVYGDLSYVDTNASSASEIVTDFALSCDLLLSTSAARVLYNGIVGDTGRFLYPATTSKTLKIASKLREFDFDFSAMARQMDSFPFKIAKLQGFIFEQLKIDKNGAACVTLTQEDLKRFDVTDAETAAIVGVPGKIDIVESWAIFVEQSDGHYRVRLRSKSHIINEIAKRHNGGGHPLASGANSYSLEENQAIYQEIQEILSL

GBS 0307 = GBS 0307 (Streptococcus agalactiae, UniProt Q8E1N5, T550A); assay: biochemical
Sequence of GBS 0307 (Q8E1N5 whole entry T550A): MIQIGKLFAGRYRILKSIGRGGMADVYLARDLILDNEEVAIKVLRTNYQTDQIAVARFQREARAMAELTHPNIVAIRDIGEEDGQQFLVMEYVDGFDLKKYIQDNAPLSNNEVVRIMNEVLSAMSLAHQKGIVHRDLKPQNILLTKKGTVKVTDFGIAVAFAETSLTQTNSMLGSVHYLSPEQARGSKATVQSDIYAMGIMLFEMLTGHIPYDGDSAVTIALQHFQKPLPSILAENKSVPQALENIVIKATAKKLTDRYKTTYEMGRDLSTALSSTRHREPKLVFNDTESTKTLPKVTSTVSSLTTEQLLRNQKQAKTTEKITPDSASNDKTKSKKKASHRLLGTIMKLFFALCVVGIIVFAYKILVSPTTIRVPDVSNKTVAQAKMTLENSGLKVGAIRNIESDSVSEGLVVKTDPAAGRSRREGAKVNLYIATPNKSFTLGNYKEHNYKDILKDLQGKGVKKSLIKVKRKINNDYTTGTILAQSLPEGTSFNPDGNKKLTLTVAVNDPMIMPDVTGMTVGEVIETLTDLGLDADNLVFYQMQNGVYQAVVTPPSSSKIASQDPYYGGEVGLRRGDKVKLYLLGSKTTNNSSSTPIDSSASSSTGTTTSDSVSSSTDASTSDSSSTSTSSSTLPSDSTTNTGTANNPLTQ

[1] = test system: S. agalactiae NEM316 wild type strain; assay: Sensitivity to colistin (MIC) of the wild type strain
Protocol: Screening for sensitivity to cationic peptide colistin and cell wall defect of the mutant library. The S. agalactiae mutants were grown TH-Kn in 96-wells microplates over-night. Bacteria were then diluted to 1:1000 and each dilution was dispatched into two microplates. In one microplate 50 μl of TH was added, whereas 50 μl of 512 μg/ml colistin (Sigma) or 2 μg/ml novobiocin (Sigma) was added in the other thus obtaining final concentrations of 256 μg/ml and 1 μg/ml, respectively. Microplates were incubated overnight at 37° C. OD600 of microplates was read on a Multiskan Ex apparatus (Thermo).

Nc1ncnc2c1ncn2[C@@H]1O[C@H](COP(=O)(O)OP(=O)(O)O)[C@@H](O)[C@H]1O [ADP]
IC50 (GBS 0582; read-out: IC50): 405 µM

Nc1ncnc2c1ncn2[C@@H]1O[C@H](COP(=O)(O)O)[C@@H](O)[C@H]1O [AMP, Adenosine monophosphate]
IC50 (GBS 0582): 235 ± 45 µM

CN[C@@H]1C[C@H]2O[C@@](C)([C@@H]1OC)n1c3ccccc3c3c4c(c5c6ccccc6n2c5c31)C(=O)NC4 [Staurosporine]
IC50 (GBS 0307): 0.023 ± 0.008 µM

colistin
CMI [1]: ≤ 1024 µg/mL
